One may read the IC50 as the concentration at which inhibition is half-maximal.

We go through 70 compounds from patent US12606528B2, “Methods and materials for inhibiting NF-kB activity” (University of Pittsburgh - Of the Commonwealth System of …, priority 2019, dated 2026).

In this test the test system is NF-κB. Nature of the test: NF-κB assay: THP1-NF-κB-LUC cells, LPS-stimulated secreted luciferase. In kind it is cell-based. Conditions: THP1-NF-κB-LUC cells, LPS-stimulated; read-out: IC50 (NF-κB assay). Here is the method:
FIG. 1 contains line plots showing NF-κB activity of exemplified compounds. 25k THP1-NF-κB-LUC cells were dispensed into 384 well plate (per well). Cells were treated with compounds (2 μM and 0.2 μM) for 2 hours before addition of LPS (10 ng/mL) for 18 hours. Secreted luciferase activity were measured using quant-luc reagents (1 bag of luc reagent dilute to 40 mL, use 10 μL per well). Data were normalized to vehicle control and graphed. Structures of selected exemplified compounds are shown.
FIG. 2 contains heat charts showing NF-κB activity of exemplified compounds as a function of concentration. 25k THP1-NF-κB-LUC cells were dispensed into 384 well plate (per well). Cells were treated with compounds (with serial dilution) for 2 hours before addition of LPS (10 ng/ml) for 18 hours. Secreted luciferase activity were measured using quant-luc reagents (1 bag of luc reagent dilute to 40 mL, use 10 μL per well). Structures of selected exemplified compounds are shown.
25k THP1-NF-κB-LUC cells were dispensed into 384 well plate (per well). Cells were treated with compounds with various concentrations for 2 hours before addition of LPS (10 ng/mL) for 18 hours. Secreted luciferase activity were measured using quant-luc reagents (1 bag of luc reagent dilute to 40 mL, use 10 μL per well). Data were normalized to vehicle control and graphed. Compound IC50 towards inhibiting NF-κB were determined through Prism. Similarly, 10k human PBMCs cells were cultured in 384 well plate (per well). Cells were treated with compounds with various concentrations for 2 hours before addition of LPS (10 ng/ml) for 18 hours, and supernatants were collected and assayed for TNF ELISA. Compound IC50 towards inhibiting TNF release were determined through Prism. • Activity: “+”>10 μM, “++”>1 μM and <10 μM, “+++”>0.1 μM and <1 μM, “++++”<0.1 μM.
`COCCNC(=O)c1ccc2nc(-c3ccc(F)cc3)c(-c3ccc(F)cc3)nc2c1` [BC18470]: the IC50 was less than 100 nM. The same measure for `NC(=O)C1CCN(C(=O)c2ccc3nc(-c4ccc(F)cc4)c(-c4ccc(F)cc4)nc3c2)CC1` [BC18471]: less than 100 nM; for `CCN1CCN(CCCNC(=O)c2ccc3nc(-c4ccccc4)c(-c4ccccc4)nc3c2)CC1` [BC18472]: 100 to 1000 nM; for `CCN1CCN(C(=O)c2ccc3nc(-c4ccccc4)c(-c4ccccc4)nc3c2)CC1` [BC18473]: less than 100 nM.

With `Cc1cccc(-c2nc3ccc(C(=O)NCCN(C)C4CCCCC4)cc3nc2-c2cccc(C)c2)c1` [BC18474], the IC50 is 1000 to 10000 nM.

As to `O=C(NCc1ccccc1)c1ccc2nc(-c3ccccc3)c(-c3ccccc3)nc2c1` [BC18475], the IC50 is more than 10000 nM. Consider `O=C(c1ccc2nc(-c3ccccc3)c(-c3ccccc3)nc2c1)N1CCN(c2ccccn2)CC1` [BC18476], for which the IC50 fell in the range of 100 to 1000 nM. For the compound `CCOc1ccc(-c2nc3ccc(C(=O)NCCN(C)C)cc3nc2-c2ccc(OCC)cc2)cc1` [BC18477], the IC50 fell in the range of 1000 to 10000 nM.

In the case of `CN(C)c1ccc(CNC(=O)c2ccc3nc(-c4ccc(F)cc4)c(-c4ccc(F)cc4)nc3c2)cc1` [BC18478], the IC50 is 100 to 1000 nM. Turning to `Cc1cccc(-c2nc3ccc(C(=O)NC(C)C)cc3nc2-c2cccc(C)c2)c1` [BC18479], the IC50 lay in the range of 1000 to 10000 nM. The same measure for `CN(C)CCNC(=O)c1ccc2nc(-c3ccc(F)cc3)c(-c3ccc(F)cc3)nc2c1` [BC18480]: less than 100 nM; for `O=C(NCc1cccs1)c1ccc2nc(-c3ccc(F)cc3)c(-c3ccc(F)cc3)nc2c1` [BC18481]: less than 100 nM; for `CN1CCN(C(=O)c2ccc3nc(-c4ccc(F)cc4)c(-c4ccc(F)cc4)nc3c2)CC1` [BC18482]: less than 100 nM. Regarding `CC1CCCCN1CCNC(=O)c1ccc2nc(-c3ccccc3)c(-c3ccccc3)nc2c1` (stereo not shown) [BC18483], the IC50 was less than 100 nM. Regarding `Cc1cccc(-c2nc3ccc(C(=O)NCCN(C)C)cc3nc2-c2cccc(C)c2)c1` [BC18484], the IC50 lay in the range of 1000 to 10000 nM. Consider `Cc1cccc(-c2nc3ccc(C(=O)NCCN4CCCCC4)cc3nc2-c2cccc(C)c2)c1` [BC18485], for which the IC50 fell in the range of 1000 to 10000 nM. Turning to `Cc1ccc(CNC(=O)c2ccc3nc(-c4ccccc4)c(-c4ccccc4)nc3c2)cc1` [BC18486], the IC50 was more than 10000 nM. To `CCOC(=O)N1CCN(C(=O)c2ccc3nc(-c4ccccc4)c(-c4ccccc4)nc3c2)CC1` [BC18487] belongs less than 100 nM; to `CCOc1ccc(-c2nc3ccc(C(=O)NCCN(C)Cc4ccccc4)cc3nc2-c2ccc(OCC)cc2)cc1` [BC18488], 1000 to 10000 nM. As for `Cc1ccc(S(=O)(=O)c2nc(-c3ccccc3)oc2S(=O)(=O)c2ccc(C)cc2)cc1` [BC18500], the IC50 was less than 100 nM. To `CC(=O)CSc1oc(-c2ccccc2)nc1S(=O)(=O)c1ccc(Cl)cc1` [BC18501] belongs more than 10000 nM; to `CSc1oc(-c2ccccc2)nc1S(=O)(=O)c1ccc(F)cc1` [BC18502], more than 10000 nM; to `CC(=O)CSc1oc(-c2ccc(F)cc2)nc1S(=O)(=O)c1ccccc1` [BC18503], 1000 to 10000 nM. To `O=S(=O)(c1ccccc1)c1nc(-c2ccc(F)cc2)oc1SCc1ccccc1F` [BC18504] belongs 1000 to 10000 nM; to `CCCCSc1oc(-c2ccc(F)cc2)nc1S(=O)(=O)c1ccc(C)cc1` [BC18505], 1000 to 10000 nM; to `CCCCSc1oc(-c2ccc(F)cc2)nc1S(=O)(=O)c1ccc(F)cc1` [BC18506], more than 10000 nM.

For `CC(C)Sc1oc(-c2ccc(F)cc2)nc1S(=O)(=O)c1ccc(Cl)cc1` [BC18507], the IC50 fell in the range of 1000 to 10000 nM. `CCS(=O)(=O)c1oc(-c2ccc(F)cc2)nc1S(=O)(=O)c1ccccc1` [BC18508]: the IC50 is less than 100 nM. The same measure for `CCCCS(=O)(=O)c1oc(-c2ccc(F)cc2)nc1S(=O)(=O)c1ccc(C)cc1` [BC18509]: less than 100 nM. For the compound `CCCCS(=O)(=O)c1oc(-c2ccc(F)cc2)nc1S(=O)(=O)c1ccc(F)cc1` [BC18510], the IC50 lay within 100 to 1000 nM. The same measure for `CC(C)S(=O)(=O)c1oc(-c2ccc(F)cc2)nc1S(=O)(=O)c1ccc(Br)cc1` [BC18511]: less than 100 nM. As to `CCSc1oc(-c2ccccc2)nc1S(=O)(=O)c1ccccc1` [BC18512], the IC50 lay within 1000 to 10000 nM.

As for `CSc1oc(-c2ccccc2)nc1S(=O)(=O)c1ccc(Cl)cc1` [BC18513], the IC50 is more than 10000 nM. Consider `CCSc1oc(-c2ccc(C)cc2)nc1S(=O)(=O)c1ccc(F)cc1` [BC18514], for which the IC50 is 1000 to 10000 nM. To `CSc1oc(-c2ccc(F)cc2)nc1S(=O)(=O)c1ccccc1` [BC18515] belongs more than 10000 nM; to `O=C(CSc1oc(-c2ccc(F)cc2)nc1S(=O)(=O)c1ccccc1)c1ccc(Cl)cc1` [BC18516], 1000 to 10000 nM. The same measure for `CCC(C)Sc1oc(-c2ccc(F)cc2)nc1S(=O)(=O)c1ccc(C)cc1` (stereo not shown) [BC18517]: 1000 to 10000 nM. To `CCC(C)Sc1oc(-c2ccc(F)cc2)nc1S(=O)(=O)c1ccc(F)cc1` (stereo not shown) [BC18518] belongs 1000 to 10000 nM.

Take `CCCCSc1oc(-c2ccc(F)cc2)nc1S(=O)(=O)c1ccc(Cl)cc1` [BC18519]: the IC50 is more than 10000 nM. The same measure for `CCCS(=O)(=O)c1oc(-c2ccc(F)cc2)nc1S(=O)(=O)c1ccccc1` [BC18520]: less than 100 nM; for `CCC(C)S(=O)(=O)c1oc(-c2ccc(F)cc2)nc1S(=O)(=O)c1ccc(C)cc1` (stereo not shown) [BC18521]: less than 100 nM; for `CS(=O)(=O)c1oc(-c2ccc(F)cc2)nc1S(=O)(=O)c1ccc(Cl)cc1` [BC18522]: less than 100 nM. As for `O=S(=O)(Cc1ccc(F)cc1)c1oc(-c2ccccc2)nc1S(=O)(=O)c1ccccc1` [BC18523], the IC50 is more than 10000 nM. To `CCS(=O)(=O)c1oc(-c2ccccc2)nc1S(=O)(=O)c1ccc(Cl)cc1` [BC18524] belongs 1000 to 10000 nM; to `CC(=O)CSc1oc(-c2ccc(C)cc2)nc1S(=O)(=O)c1ccccc1` [BC18525], more than 10000 nM; to `CCSc1oc(-c2ccc(F)cc2)nc1S(=O)(=O)c1ccccc1` [BC18526], 1000 to 10000 nM. The same measure for `CC(C)CSc1oc(-c2ccc(F)cc2)nc1S(=O)(=O)c1ccccc1` [BC18527]: 1000 to 10000 nM.

In the case of `Cc1ccc(S(=O)(=O)c2nc(-c3ccc(F)cc3)oc2SCC(C)C)cc1` [BC18528], the IC50 is more than 10000 nM. For `Cc1ccc(S(=O)(=O)c2nc(-c3ccc(F)cc3)oc2SCC(C)C)cc1` [BC18529], the IC50 was in the range of 1000 to 10000 nM. To `O=C(CSc1oc(-c2ccc(F)cc2)nc1S(=O)(=O)c1ccc(Cl)cc1)c1ccc(F)cc1` [BC18530] belongs 1000 to 10000 nM. As for `CC(C)S(=O)(=O)c1oc(-c2ccc(F)cc2)nc1S(=O)(=O)c1ccccc1` [BC18531], the IC50 was less than 100 nM. As for `CCS(=O)(=O)c1oc(-c2ccc(F)cc2)nc1S(=O)(=O)c1ccc(F)cc1` [BC18532], the IC50 is less than 100 nM. Regarding `CCCS(=O)(=O)c1oc(-c2ccc(F)cc2)nc1S(=O)(=O)c1ccc(Cl)cc1` [BC18533], the IC50 was less than 100 nM. On to `O=S(=O)(c1ccccc1)c1nc(-c2ccccc2)oc1SCc1ccccc1F` [BC18534], for which the concentration for half-maximal inhibition (IC50) is more than 10000 nM.

Turning to `CCCSc1oc(-c2ccccc2)nc1S(=O)(=O)c1ccc(Cl)cc1` [BC18535], the IC50 lay within 1000 to 10000 nM.

Regarding `CSc1oc(-c2ccc(C)cc2)nc1S(=O)(=O)c1ccc(Cl)cc1` [BC18536], the IC50 is more than 10000 nM. The same measure for `CCCSc1oc(-c2ccc(F)cc2)nc1S(=O)(=O)c1ccccc1` [BC18537]: 1000 to 10000 nM. To `CCCCCSc1oc(-c2ccc(F)cc2)nc1S(=O)(=O)c1ccccc1` [BC18538] belongs more than 10000 nM. The same measure for `NC(=O)CSc1oc(-c2ccc(F)cc2)nc1S(=O)(=O)c1ccc(F)cc1` [BC18539]: more than 10000 nM.

As for `CCCCCSc1oc(-c2ccc(F)cc2)nc1S(=O)(=O)c1ccc(F)cc1` [BC18540], the IC50 was more than 10000 nM. For the compound `CC(C)CSc1oc(-c2ccc(F)cc2)nc1S(=O)(=O)c1ccc(Cl)cc1` [BC18541], the IC50 was more than 10000 nM.

For the compound `CCCCS(=O)(=O)c1oc(-c2ccc(F)cc2)nc1S(=O)(=O)c1ccccc1` [BC18542], the IC50 is less than 100 nM.

Take `CCCS(=O)(=O)c1oc(-c2ccc(F)cc2)nc1S(=O)(=O)c1ccc(F)cc1` [BC18543]: the IC50 is less than 100 nM. For `CCCCS(=O)(=O)c1oc(-c2ccc(F)cc2)nc1S(=O)(=O)c1ccc(Cl)cc1` [BC18544], the IC50 is 100 to 1000 nM.

As to `CSc1oc(-c2ccccc2)nc1S(=O)(=O)c1ccc(F)cc1` [BC18545], the IC50 was in the range of 1000 to 10000 nM. To `CC(C)Sc1oc(-c2ccccc2)nc1S(=O)(=O)c1ccc(Cl)cc1` [BC18546] belongs 1000 to 10000 nM; to `CCSc1oc(-c2ccc(C)cc2)nc1S(=O)(=O)c1ccc(Cl)cc1` [BC18547], more than 10000 nM; to `CC(C)Sc1oc(-c2ccc(F)cc2)nc1S(=O)(=O)c1ccccc1` [BC18548], 1000 to 10000 nM. The same measure for `CSc1oc(-c2ccc(F)cc2)nc1S(=O)(=O)c1ccc(C)cc1` [BC18549]: more than 10000 nM; for `CSc1oc(-c2ccc(F)cc2)nc1S(=O)(=O)c1ccc(F)cc1` [BC18550]: more than 10000 nM.
